Test results from PubChem BioAssay AID212 (DTP/NCI, 2004).
Values joined by “and” are separate entries in the source; they are usually repeats but may differ in a detail not shown here. Identical values can stand only once. Inconclusive results are not listed.

Tested on: BDF1 mice, colon carcinoma 38 sc, T/C %
Experiment: NCI In Vivo Anticancer Drug Screen. Data for tumor model Colon Carcinoma 38 (subcutaneous) in B6D2F1 (BDF1) mice
Outline: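 Transplantable tumor in mice; compound-treated vs vehicle-dosed controls. Measured survival or tumor size; value = T ÷ C.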

[1] = endpoint: median tumor weight (est.), dose: 25.0 mg/kg/injection, schedule: Q07DX002 (ip), vehicle: saline with Tween-80, higher = larger tumour
[2] = endpoint: median tumor weight (est.), dose: 100.0 mg/kg/injection, schedule: Q07DX002 (ip), vehicle: saline with Tween-80, higher = larger tumour
[3] = endpoint: median tumor weight (est.), dose: 200.0 mg/kg/injection, schedule: Q07DX002 (ip), vehicle: saline with Tween-80, higher = larger tumour
[4] = endpoint: median tumor weight (est.), dose: 400.0 mg/kg/injection, schedule: Q07DX002 (ip), vehicle: saline with Tween-80, higher = larger tumour

`Oc1cc2ccccc2c(-c2c(O)c(O)cc3ccccc23)c1O` was tested, and the T/C (endpoint: median tumor weight (est.), dose: 12.5 mg/kg/injection, schedule: Q07DX002 (ip), vehicle: saline with Tween-80, higher = larger tumour) was 94 % of control, the T/C [1] was 119 % of control and the T/C (endpoint: median tumor weight (est.), dose: 50.0 mg/kg/injection, schedule: Q07DX002 (ip), vehicle: saline with Tween-80, higher = larger tumour) was 114 % of control. The T/C [2] was 81 % of control, the T/C [3] was 64 % of control and the T/C [4] was 64 % of control.

With `O=C1OCC2C(=O)OCC12` (centres undefined) the T/C [1] was 103 % of control, the T/C [2] was 46 % of control and the T/C [3] was 120 % of control. The T/C [4] was 69 % of control.

`COc1cccc2c1C(=O)c1c(O)c3c(c(O)c1C2=O)C[C@@](O)(C(=O)CO)C[C@@H]3OC1CC(N)C(O)C(C)O1` (some centres undefined) was tested, and the T/C (endpoint: median survival time, dose: 2.7 mg/kg/injection, schedule: Q07DX003 (iv), vehicle: saline, higher = longer survival) was 104 % of control, the T/C (endpoint: median survival time, dose: 3.3 mg/kg/injection, schedule: Q07DX002 (iv), vehicle: saline, higher = longer survival) was 112 % of control and 108 % of control and the T/C (endpoint: median survival time, dose: 3.3 mg/kg/injection, schedule: Q07DX004 (iv), vehicle: saline, higher = longer survival) was 118 % of control. The T/C (endpoint: median survival time, dose: 4.1 mg/kg/injection, schedule: Q07DX003 (iv), vehicle: saline, higher = longer survival) was 100 % of control, the T/C (endpoint: median survival time, dose: 4.5 mg/kg/injection, schedule: Q07DX002 (sc), vehicle: saline, higher = longer survival) was 79 % of control and the T/C (endpoint: median survival time, dose: 5.2 mg/kg/injection, schedule: Q07DX002 (iv), vehicle: saline, higher = longer survival) was 174 % of control. The T/C (endpoint: median survival time, dose: 5.4 mg/kg/injection, schedule: Q07DX002 (iv), vehicle: saline, higher = longer survival) was 109 % of control and 124 % of control, the T/C (endpoint: median survival time, dose: 5.4 mg/kg/injection, schedule: Q07DX004 (iv), vehicle: saline, higher = longer survival) was 155 % of control and the T/C (endpoint: median survival time, dose: 6.0 mg/kg/injection, schedule: Q07DX003 (iv), vehicle: saline, higher = longer survival) was 157 % of control. For the same compound, the T/C (endpoint: median survival time, dose: 7.3 mg/kg/injection, schedule: Q07DX002 (sc), vehicle: saline, higher = longer survival) was 104 % of control, the T/C (endpoint: median survival time, dose: 8.5 mg/kg/injection, schedule: Q07DX002 (sc), vehicle: saline, higher = longer survival) was 166 % of control and the T/C (endpoint: median survival time, dose: 8.7 mg/kg/injection, schedule: Q07DX002 (iv), vehicle: saline, higher = longer survival) was 124 % of control. For the same compound, the T/C (endpoint: median survival time, dose: 8.7 mg/kg/injection, schedule: Q07DX004 (iv), vehicle: saline, higher = longer survival) was 184 % of control, the T/C (endpoint: median survival time, dose: 9.0 mg/kg/injection, schedule: Q07DX003 (iv), vehicle: saline, higher = longer survival) was 168 % of control and the T/C (endpoint: median survival time, dose: 9.0 mg/kg/injection, schedule: Q07DX003 (sc), vehicle: saline, higher = longer survival) was 164 % of control. For the same compound, the T/C (endpoint: median survival time, dose: 12.0 mg/kg/injection, schedule: Q07DX002 (sc), vehicle: saline, higher = longer survival) was 113 % of control, the T/C (endpoint: median survival time, dose: 13.5 mg/kg/injection, schedule: Q07DX003 (sc), vehicle: saline, higher = longer survival) was 166 % of control and the T/C (endpoint: median survival time, dose: 15.5 mg/kg/injection, schedule: Q07DX003 (iv), vehicle: saline, higher = longer survival) was 152 % of control. The T/C (endpoint: median tumor weight (est.), dose: 0.18 mg/kg/injection, schedule: Q07DX002 (ip), vehicle: water, higher = larger tumour) was 67 % of control, the T/C (endpoint: median tumor weight (est.), dose: 0.37 mg/kg/injection, schedule: Q07DX002 (ip), vehicle: water, higher = larger tumour) was 102 % of control and the T/C (endpoint: median tumor weight (est.), dose: 0.5 mg/kg/injection, schedule: Q07DX002 (ip), vehicle: water, higher = larger tumour) was 108 % of control. The T/C (endpoint: median tumor weight (est.), dose: 0.5 mg/kg/injection, schedule: Q07DX003 (ip), vehicle: saline, higher = larger tumour) was 101 % of control, the T/C (endpoint: median tumor weight (est.), dose: 1.0 mg/kg/injection, schedule: Q07DX003 (ip), vehicle: saline, higher = larger tumour) was 101 % of control and the T/C (endpoint: median tumor weight (est.), dose: 1.25 mg/kg/injection, schedule: Q07DX002 (ip), vehicle: water, higher = larger tumour) was 90 % of control. For the same compound, the T/C (endpoint: median tumor weight (est.), dose: 2.0 mg/kg/injection, schedule: Q07DX003 (ip), vehicle: saline, higher = larger tumour) was 191 % of control, the T/C (endpoint: median tumor weight (est.), dose: 2.5 mg/kg/injection, schedule: Q07DX002 (ip), vehicle: saline, higher = larger tumour) was 90 % of control and the T/C (endpoint: median tumor weight (est.), dose: 2.5 mg/kg/injection, schedule: Q07DX002 (ip), vehicle: water, higher = larger tumour) was 50 % of control. The T/C (endpoint: median tumor weight (est.), dose: 3.0 mg/kg/injection, schedule: Q07DX002 (ip), vehicle: saline, higher = larger tumour) was 106 % of control and 110 % of control, the T/C (endpoint: median tumor weight (est.), dose: 3.0 mg/kg/injection, schedule: Q07DX003 (iv), vehicle: saline, higher = larger tumour) was 82 % of control and 83 % of control and the T/C (endpoint: median tumor weight (est.), dose: 4.0 mg/kg/injection, schedule: Q07DX003 (ip), vehicle: saline, higher = larger tumour) was 85 % of control. For the same compound, the T/C (endpoint: median tumor weight (est.), dose: 4.75 mg/kg/injection, schedule: Q07DX002 (ip), vehicle: water, higher = larger tumour) was 68 % of control, the T/C (endpoint: median tumor weight (est.), dose: 5.0 mg/kg/injection, schedule: Q07DX002 (ip), vehicle: saline, higher = larger tumour) was 70 % of control and the T/C (endpoint: median tumor weight (est.), dose: 5.0 mg/kg/injection, schedule: Q07DX002 (ip), vehicle: water, higher = larger tumour) was 25 % of control. The T/C (endpoint: median tumor weight (est.), dose: 6.33 mg/kg/injection, schedule: Q07DX002 (ip), vehicle: water, higher = larger tumour) was 14 % of control, the T/C (endpoint: median tumor weight (est.), dose: 8.0 mg/kg/injection, schedule: Q07DX003 (ip), vehicle: saline, higher = larger tumour) was 91 % of control and the T/C (endpoint: median tumor weight (est.), dose: 8.44 mg/kg/injection, schedule: Q07DX002 (ip), vehicle: water, higher = larger tumour) was 53 % of control. For the same compound, the T/C (endpoint: median tumor weight (est.), dose: 9.0 mg/kg/injection, schedule: Q07DX002 (ip), vehicle: water, higher = larger tumour) was 56 % of control, the T/C (endpoint: median tumor weight (est.), dose: 11.25 mg/kg/injection, schedule: Q07DX002 (ip), vehicle: water, higher = larger tumour) was 21 % of control and the T/C (endpoint: median tumor weight (est.), dose: 12.0 mg/kg/injection, schedule: Q07DX002 (ip), vehicle: saline, higher = larger tumour) was 53 % of control. For the same compound, the T/C (endpoint: median tumor weight (est.), dose: 12.0 mg/kg/injection, schedule: Q07DX003 (iv), vehicle: saline, higher = larger tumour) was 26 % of control, the T/C (endpoint: median tumor weight (est.), dose: 15.0 mg/kg/injection, schedule: Q07DX002 (ip), vehicle: water, higher = larger tumour) was 6 % of control and the T/C (endpoint: median tumor weight (est.), dose: 16.0 mg/kg/injection, schedule: Q07DX003 (ip), vehicle: saline, higher = larger tumour) was 103 % of control. For the same compound, the T/C (endpoint: median tumor weight (est.), dose: 24.0 mg/kg/injection, schedule: Q07DX003 (iv), vehicle: saline, higher = larger tumour) was 12 % of control.

For `CN1C(=O)NC(c2ccc(Cl)cc2)(c2ccc(Cl)cc2)C1=O`, the T/C (endpoint: median tumor weight (est.), dose: 12.5 mg/kg/injection, schedule: Q07DX002 (ip), vehicle: distilled water + Tween-80, higher = larger tumour) was 95 % of control, the T/C (endpoint: median tumor weight (est.), dose: 25.0 mg/kg/injection, schedule: Q07DX002 (ip), vehicle: distilled water + Tween-80, higher = larger tumour) was 105 % of control and the T/C (endpoint: median tumor weight (est.), dose: 50.0 mg/kg/injection, schedule: Q07DX002 (ip), vehicle: distilled water + Tween-80, higher = larger tumour) was 51 % of control. For the same compound, the T/C (endpoint: median tumor weight (est.), dose: 100.0 mg/kg/injection, schedule: Q07DX002 (ip), vehicle: distilled water + Tween-80, higher = larger tumour) was 97 % of control, the T/C (endpoint: median tumor weight (est.), dose: 200.0 mg/kg/injection, schedule: Q07DX002 (ip), vehicle: distilled water + Tween-80, higher = larger tumour) was 52 % of control and the T/C (endpoint: median tumor weight (est.), dose: 400.0 mg/kg/injection, schedule: Q07DX002 (ip), vehicle: distilled water + Tween-80, higher = larger tumour) was 58 % of control.

With `Cc1ccc(S(=O)(=O)NC(=O)C2C(=O)CC3(CCCCC3)CC2=O)cc1` the T/C (endpoint: median tumor weight (est.), dose: 50.0 mg/kg/injection, schedule: Q07DX002 (ip), vehicle: Klucel (hydroxypropylcellulose) (HPC), higher = larger tumour) was 104 % of control, the T/C (endpoint: median tumor weight (est.), dose: 100.0 mg/kg/injection, schedule: Q07DX002 (ip), vehicle: Klucel (hydroxypropylcellulose) (HPC), higher = larger tumour) was 112 % of control and the T/C (endpoint: median tumor weight (est.), dose: 200.0 mg/kg/injection, schedule: Q07DX002 (ip), vehicle: Klucel (hydroxypropylcellulose) (HPC), higher = larger tumour) was 95 % of control. For the same compound, the T/C (endpoint: median tumor weight (est.), dose: 400.0 mg/kg/injection, schedule: Q07DX002 (ip), vehicle: Klucel (hydroxypropylcellulose) (HPC), higher = larger tumour) was 102 % of control.

For `O=C1C(NCC(O)CO)=C(N2CC2)C(=O)C(NCC(O)CO)=C1N1CC1` (centres undefined), the T/C (endpoint: median tumor weight (est.), dose: 2.0 mg/kg/injection, schedule: Q07DX002 (ip), vehicle: saline, higher = larger tumour) was 105 % of control, the T/C (endpoint: median tumor weight (est.), dose: 4.0 mg/kg/injection, schedule: Q07DX002 (ip), vehicle: saline, higher = larger tumour) was 60 % of control and the T/C (endpoint: median tumor weight (est.), dose: 4.0 mg/kg/injection, schedule: Q07DX002 (ip), vehicle: suspension in saline, higher = larger tumour) was 66 % of control. The T/C (endpoint: median tumor weight (est.), dose: 8.0 mg/kg/injection, schedule: Q07DX002 (ip), vehicle: saline, higher = larger tumour) was 77 % of control, the T/C (endpoint: median tumor weight (est.), dose: 8.0 mg/kg/injection, schedule: Q07DX002 (ip), vehicle: suspension in saline, higher = larger tumour) was 100 % of control and the T/C (endpoint: median tumor weight (est.), dose: 16.0 mg/kg/injection, schedule: Q07DX002 (ip), vehicle: saline, higher = larger tumour) was 12 % of control. The T/C (endpoint: median tumor weight (est.), dose: 16.0 mg/kg/injection, schedule: Q07DX002 (ip), vehicle: suspension in saline, higher = larger tumour) was 69 % of control.

`O=C1CCC(=O)N1CO` was tested, and the T/C (endpoint: median tumor weight (est.), dose: 50.0 mg/kg/injection, schedule: Q07DX002 (ip), vehicle: saline, higher = larger tumour) was 112 % of control and 98 % of control, the T/C (endpoint: median tumor weight (est.), dose: 100.0 mg/kg/injection, schedule: Q07DX002 (ip), vehicle: saline, higher = larger tumour) was 99 % of control and 100 % of control and the T/C (endpoint: median tumor weight (est.), dose: 200.0 mg/kg/injection, schedule: Q07DX002 (ip), vehicle: saline, higher = larger tumour) was 76 % of control and 91 % of control. The T/C (endpoint: median tumor weight (est.), dose: 400.0 mg/kg/injection, schedule: Q07DX002 (ip), vehicle: saline, higher = larger tumour) was 36 % of control and 58 % of control.
